Measured values published in patent publication US8778385B1, “Medicated animal food composition” (I Care for Dogs Corp., priority 2005, dated 2014).
Entries after “also recorded” stand apart in the source; their conditions may differ.

Assays:
[1] = tested on: canines; conditions: cited from earlier work
[2] = tested on: tear staining; assay: controlling tear staining in Maltese dogs; assay type: in vivo
Text: In preparation of the medicated animal food composition, all of the ingredients (except for the tylosin) are initially processed into a powder and then mixed together with the tylosin, as a tartrate. Tylosin is available from the Omaha Vaccine Co. under the brand name TYLAN and is a veterinary antibiotic that is FDA-approved for fowl (chickens/turkeys) and swine (pigs). Tylosin is used primarily to treat respiratory disease caused by Mycoplasma gallisepticum.

Q: For `CN(C)[C@@H]1C(O)=C(C(N)=O)C(=O)[C@@]2(O)C(O)=C3C(=O)c4c(O)cccc4[C@@](C)(O)[C@H]3C[C@@H]12` [Tetracycline], which “side effects when used to treat excessive tearing” value [1] is on record?
A: upset stomach; also recorded: staining of the teeth

Q: Which “effect in controlling tear staining” value [2] does the source give for `CC[C@H]1OC(=O)C[C@@H](O)[C@H](C)[C@@H](O[C@@H]2O[C@H](C)[C@@H](O[C@H]3C[C@@](C)(O)[C@@H](O)[C@H](C)O3)[C@H](N(C)C)[C@H]2O)[C@@H](CC=O)C[C@@H](C)C(=O)/C=C/C(C)=C/[C@@H]1CO[C@@H]1O[C@H](C)[C@@H](O)[C@@H](OC)[C@H]1OC` [Tylosin] here?
A: some beneficial effect
